pIC50, pKi: −log10 of the molar value.
Assay: In vitro inhibitory activity against neuraminidase
Design: species or system unidentified influenza virus

SMILES | pKi | pIC50
CC(=O)N[C@H]1[C@H]([C@H](O)[C@H](O)CO)OC(C(=O)O)=C[C@@H]1O [NEU5AC2EN] | 5.40 | –
CC(=O)Nc1c(N)cc(C(=O)O)cc1O | – | < 5.00
CC(=O)N[C@H]1[C@H]([C@H](O)[C@H](O)CN)OC(C(=O)O)=C[C@@H]1O | 3.40 | –
CC(=O)Nc1c(O)cc(C(=O)O)cc1[N+](=O)[O-] | – | 3.12
CCCN(CCc1ccccc1)C(=O)[C@@H]1OC(C(=O)O)=C[C@H](N)[C@H]1NC(C)=O | – | 5.44
CC(=O)Nc1ccc(C(=O)O)cc1N | – | < 5.00
CC(=O)N[C@H]1[C@H]([C@H](O)[C@H](O)CO)OC(C(=O)O)=C[C@@H]1N | 7.40 | –
CC(=O)N[C@H]1[C@H]([C@H](O)[C@H](O)CN)OC(C(=O)O)=C[C@@H]1N | 4.82 | –

Source: ChEMBL document CHEMBL1145125, “Simple, intuitive calculations of free energy of binding for protein-ligand complexes. 2. Computational titration and pH effects in molecular models of neuraminidase-inhibitor complexes” (J Med Chem, 2003)
